Data set [1] relates to chloroquine-resistant Gambian FCR-3 strain of P. falciparum. Nature of the data set: Antiplasmodial tritiated hypoxanthine incorporation assay. It counts as cell-based, Plasmodium falciparum. As to conditions: for IC50: Plasmodium falciparum, FCR3, chloroquine-resistant FCR-3 strain, 0.5% parasitaemia, 1% haematocrit, triplicate; for Selectivity Index: ratio of cytotoxicity IC50 (MDA-MB-231) to antimalarial IC50 (FCR-3); for antiplasmodial activity (in words): FCR-3 strain of P. falciparum. The procedure:
All compounds were tested in triplicate against the chloroquine-resistant Gambian FCR-3 strain of P. falciparum. The in vitro erythrocytic stage of the parasite was maintained using the method outlined by Trager and Jensen. The antimalarial activity of the compounds was determined using the tritiated hypoxanthine incorporation assay using a 0.5% parasitaemia and 1% haematocrit. All assays were carried out using untreated parasites and uninfected red blood cells as controls. The concentration that inhibited 50% parasite growth (IC50 value) was determined from the log sigmoid dose response curve using GraphPad Prism. Quinine was used as the reference antiplasmodial agent. The selectivity index for the compounds was determined from the ratio of cytotoxicity IC50 to antimalarial IC50.

In data set [2] the test system is MDA-MB-231 breast carcinoma cells. As to the kind of experiment: Cytotoxicity WST-1 assay. Format: cell-based. As to conditions: MDA-MB-231 cells; for IC50: Homo sapiens, WST-1, triplicate. The procedure: All compounds were tested in triplicate against MDA-MB-231 breast carcinoma cells, which were purchased from the ATCC (Catalogue number HTB-26, Manassas, VA, USA). The cytotoxicity of the compounds was determined using the WST-1 assay method (Roche). The cells were treated with a range of concentrations of the test compounds or vehicle control (DMSO). Cells treated with DMSO were considered to represent 100% viability and the viability of cells at each dose was represented relative to this value. The concentration resulting in a decrease of cell viability to 50% was calculated from the linear portion of the dose response curve.
A general note: Formazan colour is commonly taken as a measure of viable cells.

The subject of data set [3] is Plasmodium falciparum (D10). Also noted: method as in PMID 19227833. As to conditions: chloroquine sensitive strain D10 of P. falciparum; ref [5]; cited from earlier work.
[4] abbreviates: listed as sarganaphthoquinoic acid (10).

This is an account of results in publication PMC6630221, “Semi-Synthesis and Evaluation of Sargahydroquinoic Acid Derivatives as Potential Antimalarial Agents” (Medicines, 2019).

The term IC50 denotes the concentration that gives 50% inhibition.

With `CC(=O)Oc1cc(C)c(OC(C)=O)c(C/C=C(\C)CC/C=C(\C)CC/C=C(/CCC=C(C)C)C(=O)O)c1` [Sargahydroquinoic acid di-acetate (2), Diacetyl Sargahydroquinoic Acid], in data set [1], it took 84.3 µM to reach half-maximal inhibition (IC50) and the “Selectivity Index” value stood at 3.4. For the same compound, in data set [2], the concentration for half-maximal inhibition (IC50) was determined as 286 µM.

Take `C=C[C@H]1C[N@@]2CC[C@H]1C[C@H]2[C@H](O)c1ccnc2ccc(OC)cc12` [Quinine, reference compound]: in data set [1], it took 0.17 µM to reach half-maximal inhibition (IC50).

Turning to `CC(C)=CCC/C(=C/CC/C(C)=C/CCC1(C)C=Cc2cc(O)cc(C)c2O1)CO` (stereo not drawn) [Sargachromendiol (8), sargachromendiol], in data set [1], the half-maximal inhibitory concentration (IC50) amounted to 34.2 µM and the “Selectivity Index” value was found to be 5.5. Also, in data set [2], half-maximal inhibition (IC50) required 187 µM.

Consider `CC(C)=CCC/C(C=O)=C\CC/C(C)=C/CC/C(C)=C/CC1=CC(=O)C=C(C)C1=O` [10E-sargaquinal (9), 10’E-sargaquinal], for which the IC50 in data set [3] is 2 µM. Also, in data set [1], the “antiplasmodial activity (in words)” value was “decreased antiplasmodial activity”; the midpoint of inhibition, the IC50, lay at 104 µM; the “Selectivity Index” value was 0.7. Moreover, half-maximal inhibition in data set [2] (IC50) required 69 µM.

As for `CC(C)=CCC/C(C=O)=C/CC/C(C)=C/CC/C(C)=C/CC1=CC(=O)C=C(C)C1=O` [10Z-sargaquinal (4), 2’E,6’E,10’Z-sargaquinal], in data set [1], the “antiplasmodial activity (in words)” value is recorded as “decreased antiplasmodial activity”, 72.6 µM corresponded to half-maximal inhibition (IC50) and the “Selectivity Index” value is reported as 2.9. For the same compound, the IC50 in data set [2] came to 211 µM.

For the compound `COC(=O)/C(=C\CC/C(C)=C/CC/C(C)=C/CC1=CC(=O)C=C(C)C1=O)CCC=C(C)C` [Sargaquinoic acid methyl ester (5), sargaquinoic acid methyl ester], in data set [1], the IC50 was found to be 8.2 µM and the “Selectivity Index” value is given as 8.6. The compound also yielded a 50% inhibitory concentration (IC50) in data set [2] of 70 µM.

As for `CC(C)=CCC/C(=C/CC/C(C)=C/CC/C(C)=C/CC1=CC(=O)C=C(C)C1=O)C(=O)O` [Sargaquinoic acid (3), sargaquinoic acid], the IC50 in data set [3] was 12 µM. Further, in data set [1], the “antiplasmodial activity (in words)” value is “most promising antiplasmodial activity”, the half-inhibitory concentration (IC50) came to 10.8 µM and the “Selectivity Index” value is 60.9. In addition, in data set [2], the concentration for half-maximal inhibition (IC50) amounted to 658 µM and the “cytotoxicity (in words)” value is “low cytotoxicity”.

For the compound `CC(C)=CCC/C(=C/CC/C(C)=C/CCc1ccc2c(c1)C(=O)C=C(C)C2=O)C(=O)O` [Sarganaphthoquinone (10), sarganaphthoquinoic acid], the entries for the “antiplasmodial activity (in words)” value in data set [1] and in data set [1] (setting [4]) were “most promising antiplasmodial activity” and “good antiplasmodial activity”, respectively. The results for the IC50 in data set [1] and in data set [2] were 5.4 µM and 2410 µM, respectively. The “cytotoxicity (in words)” value in data set [2] is on record as “low cytotoxicity”; in data set [2] (setting [4]), “almost non-toxic”.

Take `CC(C)=CCC/C(=C/CC/C(C)=C/CC/C(C)=C/Cc1cc(O)cc(C)c1O)C(=O)O` [Sargahydroquinoic acid (1), sargahydroquinoic acid]: the half-maximal inhibitory concentration (IC50) is 15.2 µM in data set [3], 38.6 µM in data set [1] and 70 µM in data set [2]. Moreover, the “Selectivity Index” value in data set [1] was 1.8.

Turning to `CC(C)=CCC/C(=C/CC/C(C)=C/CC/C(C)=C/CC1=CC(=O)C=C(C)C1=O)CO` [Sargaquinol (6), sargaquinol], in data set [1], the “antiplasmodial activity (in words)” value is “decreased antiplasmodial activity”, the concentration for half-maximal inhibition (IC50) worked out at 93.1 µM and the “Selectivity Index” value is 1.1. In data set [2], this compound had a concentration for half-maximal inhibition (IC50) of 99 µM.

As for `CC(C)=CCC/C(=C/CC/C(C)=C/CCC1(C)C=Cc2cc(O)cc(C)c2O1)C(=O)O` (stereo not drawn) [Sargachromenol (7), sargachromenol], in data set [1], the IC50 was 115 µM and the “Selectivity Index” value came out at 0.5. In addition, inhibition in data set [2] was half-maximal at 56 µM (IC50).
